Assay results published in patent publication US20220073536A1 (Rigel Pharmaceuticals, Inc., priority 2003, published 2022).

Legend:
[1] = system: cultured human mast cells (CHMC); assay: CHMC low cell density ionomycin activation: tryptase assay; format: cell-based; settings: read-out: LD Tryptase, CHMC, Iono, 3 pt
[2] = system: cultured human mast cells (CHMC); assay: CHMC low cell density IgE activation: tryptase assay; format: cell-based; settings: IgE activation
Outline: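 Tryptase release was read from supernatant with a fluorogenic substrate (30 min, room temperature) after anti-IgE challenge of cultured human mast cells (1000–1500 cells/well, low density) for 30 minutes at 37° C.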

[3] = Homo sapiens, Mast cell, low cell density, 3 pt
[4] = Homo sapiens, Mast cell, low cell density, 3 pt, read-out: LD Tryptase, CHMC, IgE, 3 pt
[5] = Homo sapiens, Mast cell, low cell density CHMC, tryptase release, 3 point
[6] = Homo sapiens, Mast cell, low cell density CHMC, tryptase release, 3 point, read-out: LD Tryptase, CHMC, IgE, 3 pt
[7] = low cell density CHMC, tryptase release, 3 point
[8] = low cell density CHMC, tryptase release, 3 point, read-out: LD Tryptase, CHMC, IgE, 3 pt
[9] = Homo sapiens, Mast cell, low cell density CHMC, tryptase release, 8 point, read-out: LD Tryptase, CHMC, IgE, 8 pt
[10] = low cell density CHMC, tryptase release, 8 point, read-out: LD Tryptase, CHMC, IgE, 8 pt

| SMILES | IC50 [1, 5] | IC50 [2, 6] | IC50 [1, 7] | IC50 [2, 8] | other results |
| --- | --- | --- | --- | --- | --- |
| COc1ccc(Nc2nc(Nc3cc(-c4ncco4)cc(C(F)(F)F)c3)ncc2F)cc1OC [Compound 520, N4-(3,4-Dimethoxyphenyl)-5-fluoro-N2-[3-(oxazol-2-yl)-5-trifluoromethylphenyl]-2,4-pyrimidinediamine] | – | – | – | – | IC50 [1, 3]: > 10 µM; IC50 [2, 4]: < 10 µM |
| CC1(C)Oc2ccc(Nc3nc(Nc4cc(-c5ncco5)cc(C(F)(F)F)c4)ncc3F)cc2NC1=O [Compound 521, N4-(2,2-Dimethyl-3-oxo-4H-benz[1,4]oxazin-6-yl)-5-fluoro-N2-[3-(oxazol-2-yl)-5-trifluoromethylphenyl]-2,4-pyrimidinediamine] | – | – | – | – | IC50 [1, 3]: > 10 µM; IC50 [2, 4]: < 10 µM |
| CC(C)Oc1ccc(N(C)c2nc(Cl)ncc2F)cn1 [Compound 576] | > 10 µM | > 10 µM | – | – | – |
| COc1cc(Nc2ncc(F)c(N(C)c3ccc(OC)c(Cl)c3)n2)cc(OC)c1 [Compound 577] | > 10 µM | < 10 µM | – | – | – |
| COc1ccc(N(C)c2nc(Nc3cc(C)c(OC)c(Cl)c3)ncc2F)cc1Cl [Compound 578, N2-(3-Chloro-4-methoxy-5-methylphenyl)-N4-(3-chloro-4-methoxyphenyl)-5-fluoro-N4-methyl-2,4-pyrimidinediamine] | > 10 µM | < 10 µM | – | – | – |
| CNC(=O)COc1c(C)cc(Nc2ncc(F)c(N(C)c3ccc(OC)c(Cl)c3)n2)cc1C [Compound 579, N4-(3-Chloro-4-methoxyphenyl)-N2-[3,5-dimethyl-4-(N-methylamino)carbonylmethyleneoxyphenyl]-5-fluoro-N4-methyl-2,4-pyrimidinediamine] | – | – | > 10 µM | < 10 µM | – |
| CNC(=O)COc1cccc(Nc2ncc(F)c(N(C)c3ccc(OC)c(Cl)c3)n2)c1 [Compound 580, N4-(3-Chloro-4-methoxyphenyl)-N2-[3-(N-methylamino)carbonylmethyleneoxyphenyl]-5-fluoro-N4-methyl-2,4-pyrimidinediamine] | – | – | > 10 µM | < 10 µM | – |
| COc1cc(Nc2ncc(F)c(N(C)c3ccc(OC(C)C)nc3)n2)cc(OC)c1 [Compound 581, N2-(3,5-Dimethoxyphenyl)-5-fluoro-N4-(2-isopropoxypyrid-5-yl)-N4-methyl-2,4-pyrimidinediamine] | > 10 µM | < 10 µM | – | – | – |
| CNC(=O)COc1cccc(Nc2ncc(F)c(N(C)c3ccc(OC(C)C)nc3)n2)c1 [Compound 582, 5-Fluoro-N4-(2-isopropoxypyrid-5-yl)-N4-methyl-N2-[3-(N-methylamino)carbonylmethyleneoxyphenyl]-2,4-pyrimidinediamine] | – | – | > 10 µM | < 10 µM | – |
| Cc1cc(C)cc(Nc2ncc(F)c(N(C)c3ccc(OC(C)C)nc3)n2)c1 [Compound 583, N2-(3,5-Dimethylphenyl)-5-fluoro-N4-(2-isopropoxypyrid-5-yl)-N4-methyl-2,4-pyrimidinediamine] | > 10 µM | < 10 µM | – | – | – |
| COc1ccc(N(C)c2nc(Nc3cc(C)cc(C)c3)ncc2F)cc1Cl [Compound 584] | > 10 µM | < 10 µM | – | – | – |
| COC(=O)c1cc2cc(Nc3ncc(F)c(N(C)c4ccc(OC)c(Cl)c4)n3)ccc2o1 [Compound 585, N4-(3-Chloro-4-methoxyphenyl)-5-fluoro-N2-(2-methoxycarbonylbenzofuran-5-yl)-N4-methyl-2,4-pyrimidinediamine] | > 10 µM | > 10 µM | – | – | – |
| COC(=O)c1cc2cc(Nc3ncc(F)c(N(C)c4ccc(OC(C)C)nc4)n3)ccc2o1 [Compound 586, 5-Fluoro-N4-(2-isopropoxypyrid-5-yl)-N2-(2-methoxycarbonylbenzofuran-5-yl)-N4-methyl-2,4-pyrimidinediamine] | < 10 µM | < 10 µM | – | – | – |
| COc1cc(Nc2ncc(F)c(N(C)c3ccc(Cl)c(OC)c3)n2)cc(OC)c1 [Compound 587, N4-(4-Chloro-3-methoxyphenyl)-N2-(3,5-dimethoxyphenyl)-5-fluoro-N4-methyl-2,4-pyrimidinediamine] | > 10 µM | < 10 µM | – | – | IC50 [2, 9]: < 10 µM |
| COc1cc(N(C)c2nc(Nc3cc(C)cc(C)c3)ncc2F)ccc1Cl [Compound 588] | > 10 µM | < 10 µM | – | – | – |
| CNC(=O)COc1cccc(Nc2ncc(F)c(N(C)c3ccc(Cl)c(OC)c3)n2)c1 [Compound 589, N4-(4-Chloro-3-methoxyphenyl)-5-fluoro-N4-methyl-N2-[3-(N-methylamino)carbonylmethyleneoxyphenyl]-2,4-pyrimidinediamine] | – | – | > 10 µM | < 10 µM | IC50 [2, 10]: < 10 µM |
| COc1cc(N(C)c2nc(Nc3ccc4[nH]ccc4c3)ncc2F)ccc1Cl [Compound 590, N4-(4-Chloro-3-methoxyphenyl)-5-fluoro-N2-(indol-5-yl)-N4-methyl-2,4-pyrimidinediamine] | > 10 µM | < 10 µM | – | – | IC50 [2, 9]: < 10 µM |
| COc1cc(Nc2ncc(F)c(N(C)c3cc(C)c(Cl)c(C)c3)n2)cc(OC)c1 [Compound 591] | > 10 µM | < 10 µM | – | – | IC50 [2, 9]: < 10 µM |

| SMILES | IC50 [1, 5] | IC50 [2, 6] | IC50 [1, 7] | IC50 [2, 8] | other results |
| --- | --- | --- | --- | --- | --- |
| Cc1cc(C)cc(Nc2ncc(F)c(N(C)c3cc(C)c(Cl)c(C)c3)n2)c1 [Compound 592] | > 10 µM | > 10 µM | – | – | – |
| CNC(=O)COc1cccc(Nc2ncc(F)c(N(C)c3cc(C)c(Cl)c(C)c3)n2)c1 [Compound 593, N4-(4-Chloro-3,5-dimethylphenyl)-5-fluoro-N4-methyl-N2-[3-(N-methylamino)carbonylmethyleneoxyphenyl]-2,4-pyrimidinediamine] | – | – | > 10 µM | < 10 µM | IC50 [2, 10]: < 10 µM |
| Cc1cc(N(C)c2nc(Nc3ccc4[nH]ccc4c3)ncc2F)cc(C)c1Cl [Compound 594] | < 10 µM | < 10 µM | – | – | IC50 [2, 9]: < 10 µM |
| COC(=O)c1cc2cc(Nc3ncc(F)c(N(C)c4cc(C)c(Cl)c(C)c4)n3)ccc2o1 [Compound 595] | > 10 µM | > 10 µM | – | – | – |
| Cc1cc(N(C)c2nc(Nc3ccc(-c4ncco4)cc3)ncc2F)cc(C)c1Cl [Compound 596] | > 10 µM | > 10 µM | – | – | – |
| Cc1cc(N(C)c2nc(Nc3cccc(-c4cnco4)c3)ncc2F)cc(C)c1Cl [Compound 597] | > 10 µM | < 10 µM | – | – | – |
| Cc1cc(N(C)c2nc(Nc3ccc(-c4cnco4)cc3)ncc2F)cc(C)c1Cl [Compound 598] | > 10 µM | < 10 µM | – | – | – |
| Cc1cc(N(C)c2nc(Nc3ccc4cc[nH]c4c3)ncc2F)cc(C)c1Cl [Compound 599] | > 10 µM | < 10 µM | – | – | – |
| CNC(=O)COc1ccc(Nc2nc(Nc3cc(C)cc(C)c3)ncc2F)cc1Cl [Compound 600, N4-[3-Chloro-4-(N-methylamino)carbonylmethyleneoxyphenyl]-N2-(3,5-dimethylphenyl)-5-fluoro-2,4-pyrimidinediamine] | – | – | > 10 µM | < 10 µM | IC50 [2, 10]: < 10 µM |
| CNC(=O)COc1ccc(Nc2nc(Nc3cc(OC)cc(OC)c3)ncc2F)cc1Cl [Compound 601, N4-[3-Chloro-4-(N-methylamino)carbonylmethyleneoxyphenyl]-N2-(3,5-dimethoxylphenyl)-5-fluoro-2,4-pyrimidinediamine] | – | – | > 10 µM | < 10 µM | IC50 [2, 10]: < 10 µM |
| CNC(=O)COc1ccc(Nc2nc(Nc3ccc(OC)c(Cl)c3)ncc2F)cc1Cl [Compound 602, N2-(3-Chloro-4-methoxyphenyl)-N4-[3-chloro-4-(N-methylamino)carbonylmethyleneoxyphenyl]-5-fluoro-2,4-pyrimidinediamine] | – | – | > 10 µM | < 10 µM | IC50 [2, 10]: < 10 µM |
| CNC(=O)COc1ccc(Nc2nc(Nc3cc(C)c(Cl)c(C)c3)ncc2F)cc1Cl [Compound 603, N2-(4-Chloro-3,5-dimethylphenyl)-N4-[3-chloro-4-(N-methylamino)carbonylmethyleneoxyphenyl]-5-fluoro-2,4-pyrimidinediamine] | – | – | > 10 µM | < 10 µM | IC50 [2, 10]: > 10 µM |
| Cc1cc(N(C)c2nc(Nc3ccc(-c4cocn4)cc3)ncc2F)cc(C)c1Cl [Compound 604] | > 10 µM | < 10 µM | – | – | – |
| CNC(=O)COc1ccc(Nc2nc(Nc3ccc4cc[nH]c4c3)ncc2F)cc1Cl [Compound 605, N4-[3-Chloro-4-(N-methylamino)carbonylmethyleneoxyphenyl]-5-fluoro-N2-(indol-6-yl)-2,4-pyrimidinediamine] | – | – | > 10 µM | < 10 µM | IC50 [2, 10]: < 10 µM |
| COc1cc(N(C)c2nc(Nc3ccc(-c4cocn4)cc3)ncc2F)ccc1Cl [Compound 606, N4-(4-Chloro-3-methoxyphenyl)-5-fluoro-N4-methyl-N2-[4-(oxazol-4-yl)phenyl]-2,4-pyrimidinediamine] | < 10 µM | < 10 µM | – | – | IC50 [2, 9]: < 10 µM |
| CNC(=O)c1cc(Nc2ncc(F)c(Nc3ccc(Cl)c(OC)c3)n2)ccc1Cl [Compound 607, N4-(4-Chloro-3-methoxyphenyl)-N2-[4-chloro-3-(N-methylamino)carbonylphenyl]-5-fluoro-2,4-pyrimidinediamine] | > 10 µM | < 10 µM | – | – | IC50 [2, 9]: < 10 µM |
| CNC(=O)COc1ccc(Nc2nc(Nc3ccc(Cl)c(C(=O)NC)c3)ncc2F)cc1Cl [Compound 608, N4-[3-Chloro-4-(N-methylamino)carbonylmethyleneoxyphenyl]-N2-[4-chloro-3-(N-methylamino)carbonylphenyl]-5-fluoro-2,4-pyrimidinediamine] | – | – | > 10 µM | < 10 µM | – |
